Results taken from US11098035B2, “Compounds, compositions, and methods for increasing CFTR activity” (Proteostasis Therapeutics, Inc., priority 2014, dated 2021).

biological target: T1, ΔF508-CFTR (Homo sapiens, UniProt P13569, DEL508-508); assay: hBE Equivalent Current (Ieq) Assay; type: cell-based; conditions: compound at 10 uM and VX-809 at 1 uM, activity as % of VX-809 (1 uM); AUC of equivalent chloride current; primary lung epithelial cells homozygous for ΔF508, 24 h treatment
T1 construct: Primary lung epithelial cells homozygous for the Cystic Fibrosis-causing ΔF508 mutation were differentiated for a minimum of 4 weeks; endogenous in cells; host or cells: primary human bronchial (lung) epithelial cells (hBE) homozygous for ΔF508, differentiated at an air-liquid interface
T1 sequence (P13569 with tags, fused parts or gaps DEL508-508): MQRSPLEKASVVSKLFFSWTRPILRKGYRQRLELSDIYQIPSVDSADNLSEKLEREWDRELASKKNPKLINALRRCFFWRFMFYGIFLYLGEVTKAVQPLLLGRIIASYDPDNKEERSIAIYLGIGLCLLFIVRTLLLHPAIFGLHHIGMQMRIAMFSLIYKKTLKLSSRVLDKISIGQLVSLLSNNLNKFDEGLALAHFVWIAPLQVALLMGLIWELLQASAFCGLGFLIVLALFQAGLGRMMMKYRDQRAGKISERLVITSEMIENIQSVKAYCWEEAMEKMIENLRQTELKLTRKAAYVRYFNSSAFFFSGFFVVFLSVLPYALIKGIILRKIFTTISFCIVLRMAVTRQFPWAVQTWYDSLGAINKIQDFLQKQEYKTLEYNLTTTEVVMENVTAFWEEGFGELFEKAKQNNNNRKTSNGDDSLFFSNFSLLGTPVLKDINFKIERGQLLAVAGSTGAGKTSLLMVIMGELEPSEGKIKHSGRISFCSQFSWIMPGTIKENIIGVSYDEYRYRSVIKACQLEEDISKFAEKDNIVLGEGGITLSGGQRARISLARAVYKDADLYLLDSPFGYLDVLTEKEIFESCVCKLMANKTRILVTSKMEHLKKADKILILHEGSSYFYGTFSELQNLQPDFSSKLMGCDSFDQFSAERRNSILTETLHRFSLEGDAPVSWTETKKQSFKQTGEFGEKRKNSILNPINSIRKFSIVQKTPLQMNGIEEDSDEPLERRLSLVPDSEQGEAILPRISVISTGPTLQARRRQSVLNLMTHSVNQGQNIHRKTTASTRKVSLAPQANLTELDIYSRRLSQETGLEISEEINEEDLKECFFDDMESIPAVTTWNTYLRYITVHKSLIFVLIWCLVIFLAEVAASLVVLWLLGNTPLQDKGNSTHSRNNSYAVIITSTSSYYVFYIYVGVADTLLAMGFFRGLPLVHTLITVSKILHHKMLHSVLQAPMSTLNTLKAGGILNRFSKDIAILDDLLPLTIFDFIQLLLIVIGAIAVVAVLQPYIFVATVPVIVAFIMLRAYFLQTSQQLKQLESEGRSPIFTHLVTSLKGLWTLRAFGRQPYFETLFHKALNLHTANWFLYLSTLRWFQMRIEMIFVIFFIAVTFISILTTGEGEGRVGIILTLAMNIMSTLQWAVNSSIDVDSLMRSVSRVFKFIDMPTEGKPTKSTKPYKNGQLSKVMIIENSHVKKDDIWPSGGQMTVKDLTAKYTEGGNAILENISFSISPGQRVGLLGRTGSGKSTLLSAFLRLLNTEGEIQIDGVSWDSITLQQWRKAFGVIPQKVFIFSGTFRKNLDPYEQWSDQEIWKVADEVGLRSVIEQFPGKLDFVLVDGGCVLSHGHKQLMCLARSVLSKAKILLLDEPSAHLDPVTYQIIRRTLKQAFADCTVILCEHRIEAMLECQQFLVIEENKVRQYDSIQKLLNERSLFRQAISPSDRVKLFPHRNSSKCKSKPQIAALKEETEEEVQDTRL
Experimental: Primary lung epithelial cells homozygous for the Cystic Fibrosis-causing ΔF508 mutation were differentiated for a minimum of 4 weeks in an air-liquid interface on Costar 24 well HTS filter plates prior to the equivalent current (Ieq) measurements. Cells were apically mucus-washed for 30 minutes 24 h prior to treatment with compounds. The basolateral media was removed and replaced with media containing the compound of interest diluted to its final concentration from DMSO stocks. Treated cells were incubated at 37° C. and 5% CO2 for 24 hours. At the end of the treatment period, the media was changed to the Ieq experimental solution for 30 minutes before the experiment and plates are maintained in a CO2-free incubator during this period. The plates containing the cells were then placed in pre-warmed heating blocks at 36° C.±0.5 for 15 minutes before measurements are taken. The transepithelial voltage (VT) and conductance (GT) were measured using a custom 24 channel current clamp (TECC-24) with 24 well electrode manifold. The Ieq assay measurements were made following additions with standardized time periods: • 1. The baseline VT and GT values were measured for approximately 20 minutes. • 2. Benzamil was added to block ENaC for 15 minutes. • 3. Forskolin plus VX-770 were added to maximally activate ΔF508-CFTR for 27 minutes. • 4. Bumetanide was added to inhibit the NaK2Cl cotransporter and shut-off secretion of chloride.
The activity data captured was the area under the curve (AUC) for the traces of the equivalent chloride current. The AUC was collected from the time of the forskolin/VX-770 addition until the inhibition by bumetanide addition. Correction in response to compound treatment was scored as the increase in the AUC for compound-treated samples over that of vehicle-treated samples.
The results are shown below in Table 2. ++ indicates activity ≥25% run at 10 uM of VX-809 at 1 uM, + indicates activity 10 to <25% run at 10 uM of VX-809 at 1 uM, **indicates activity ≥200% of VX-809 (1 uM) with compound at 10 uM and VX-809 at 1 uM; * indicates activity 100-200% of VX-809 (1 uM) with compound at 10 uM and VX-809 at 1 uM. ^## indicates activity ≥200% of VX-809 (3 uM) with compound at 10 uM and VX-809 at 3 uM; ^# indicates activity 100-200% of VX-809 (3 uM) with compound at 10 uM and VX-809 at 3 uM.

Row | SMILES | Ieq
1 | C[C@@H](O)c1nnc(C2CC(NC(=O)c3cc(-c4ccccc4)no3)C2)o1 (stereo partly shown) [Example 6] | * (* indicates activity 100-200% of VX-809 (1 uM) with compound at 10 uM and VX-809 at 1 uM)
2 | C[C@@H](O)c1nnc(CC2CC(NC(=O)c3cc(-c4ccc(F)cc4)no3)C2)o1 (stereo partly drawn) [Example 40, 3-(4-Fluorophenyl)-N-[(1r,3r)-3-([5-[(1R)-1-hydroxyethyl]-1,3,4-oxadiazol-2-yl]methyl)cyclobutyl]-1,2-oxazole-5-carboxamide] | ** (**indicates activity ≥200% of VX-809 (1 uM) with compound at 10 uM and VX-809 at 1 uM)
3 | C[C@@H](O)c1nnc(C[C@H]2C[C@@H](NC(=O)c3cc(-c4ccccc4)no3)C2)s1 [Example 41, 3-Phenyl-N-[(1s,3s)-3-([5-[(1R)-1-hydroxyethyl]-1,3,4-thiadiazol-2-yl]methyl)cyclobutyl]-1,2-oxazole-5-carboxamide] | ** (**indicates activity ≥200% of VX-809 (1 uM) with compound at 10 uM and VX-809 at 1 uM)
4 | C[C@@H](O)c1nnc(CC2CC(NC(=O)c3cc(-c4ccccc4)no3)C2)s1 (stereo partly drawn) [Example 42, 3-Phenyl-N-[(1r,3r)-3-([5-[(1R)-1-hydroxyethyl]-1,3,4-thiadiazol-2-yl]methyl)cyclobutyl]-1,2-oxazole-5-carboxamide] | * (* indicates activity 100-200% of VX-809 (1 uM) with compound at 10 uM and VX-809 at 1 uM)
5 | C[C@@H](O)c1nnc(C[C@H]2C[C@@H](NC(=O)c3cc(-c4ccc(F)cc4)no3)C2)s1 [Example 43, 3-(4-Fluorophenyl)-N-[(1s,3s)-3-([5-[(1R)-1-hydroxyethyl]-1,3,4-thiadiazol-2-yl]methyl)cyclobutyl]-1,2-oxazole-5-carboxamide] | ** (**indicates activity ≥200% of VX-809 (1 uM) with compound at 10 uM and VX-809 at 1 uM)
6 | C[C@@H](O)c1nnc(C[C@H]2C[C@H](NC(=O)c3cc(-c4ccc(F)cc4)no3)C2)s1 [Example 44, 3-(4-Fluorophenyl)-N-[(1r,3r)-3-([5-[(1R)-1-hydroxyethyl]-1,3,4-thiadiazol-2-yl]methyl)cyclobutyl]-1,2-oxazole-5-carboxamide] | ** (**indicates activity ≥200% of VX-809 (1 uM) with compound at 10 uM and VX-809 at 1 uM)
7 | C[C@@H](O)c1nnc(C[C@H]2C[C@@H](NC(=O)c3cc(-c4cccs4)no3)C2)o1 [Example 45, N-[(1s,3s)-3-([5-[(1R)-1-Hydroxyethyl]-1,3,4-oxadiazol-2-yl]methyl)cyclobutyl]-3-(thiophen-2-yl)-1,2-oxazole-5-carboxamide] | * (* indicates activity 100-200% of VX-809 (1 uM) with compound at 10 uM and VX-809 at 1 uM)
8 | C[C@@H](O)c1nnc(C[C@H]2C[C@H](NC(=O)c3cc(-c4cccs4)no3)C2)o1 [Example 46, N-[(1r,3r)-3-([5-[(1R)-1-Hydroxyethyl]-1,3,4-oxadiazol-2-yl]methyl)cyclobutyl]-3-(thiophen-2-yl)-1,2-oxazole-5-carboxamide] | * (* indicates activity 100-200% of VX-809 (1 uM) with compound at 10 uM and VX-809 at 1 uM)
9 | C[C@@H](O)c1nnc([C@H]2C[C@H](NC(=O)c3onc(-c4ccccc4)c3F)C2)o1 [Example 50, 4-Fluoro-3-phenyl-N-[(1r,3r)-3-[5-[(1R)-1-hydroxyethyl]-1,3,4-oxadiazol-2-yl]cyclobutyl]-1,2-oxazole-5-carboxamide] | * (* indicates activity 100-200% of VX-809 (1 uM) with compound at 10 uM and VX-809 at 1 uM)
10 | C[C@H](O)c1cnnn1C[C@H]1C[C@@H](NC(=O)c2cc(-c3ccccc3)no2)C1 [Example 57, 3-Phenyl-N-[(1s,3s)-3-([5-[(1S)-1-hydroxyethyl]-1H-1,2,3-triazol-1-yl]methyl)cyclobutyl]-1,2-oxazole-5-carboxamide] | ** (**indicates activity ≥200% of VX-809 (1 uM) with compound at 10 uM and VX-809 at 1 uM)
11 | C[C@H](O)c1cn(C[C@H]2C[C@@H](NC(=O)c3cc(-c4ccccc4)no3)C2)nn1 [Example 58, 3-Phenyl-N-[(1s,3s)-3-([4-[(1S)-1-hydroxyethyl]-1H-1,2,3-triazol-1-yl]methyl)cyclobutyl]-1,2-oxazole-5-carboxamide] | * (* indicates activity 100-200% of VX-809 (1 uM) with compound at 10 uM and VX-809 at 1 uM)

biological target: T1, ΔF508-CFTR; assay: Ussing Measurements; type: cell-based; conditions: compound at 10 uM and VX-809 at 3 uM, activity as % of VX-809 (3 uM); CFTRinh-172 inhibitable short-circuit current; hBEs homozygous for ΔF508, 24 h treatment
Experimental: As discussed above, Ussing measurements are used to measure CFTR activity. In this method, primary lung epithelial cells (hBEs) homozygous for the Cystic Fibrosis-causing ΔF508 mutation are differentiated for a minimum of 4 weeks in an air-liquid interface on SnapWell filter plates prior to the Ussing measurements. Cells are apically mucus-washed for 30 minutes prior to treatment with compounds. The basolateral media is removed and replaced with media containing the compound of interest diluted to its final concentration from DMSO stocks. Treated cells are incubated at 37° C. and 5% CO2 for 24 hours. […] The short-circuit current is measured in voltage clamp-mode (Vhold=0 mV), and the entire assay is conducted at a temperature of 36° C.-36.5° C. Once the voltages stabilized, the chambers are clamped, and data is recorded by pulse readings every 5 seconds. Following baseline current stabilization, the following additions can be applied and the changes in current and resistance of the cells can be monitored: • 1. […]
The inhibitable current (that current that is blocked by CFTRinh-172) is measured as the specific activity of the ΔF508-CFTR channel, and increases in response to compound in this activity over that observed in vehicle-treated samples are identified as the correction of ΔF508-CFTR function imparted by the compound tested. […]

Row | SMILES | Ussing
12 | O=C(NC1CC(n2nncc2CO)C1)c1cc(-c2ccccc2)no1 (stereo not drawn) [Example 5, N-trans-3-(5-(hydroxymethyl)-1H-1,2,3-triazol-1-yl)cyclobutyl)-3-phenylisoxazole-5-carboxamide] | ## (^## indicates activity ≥200% of VX-809 (3 uM) with compound at 10 uM and VX-809 at 3 uM)
13 | C[C@@H](O)c1nnc(C2CC(NC(=O)c3cc(-c4ccccc4)no3)C2)o1 (stereo partly shown) [Example 6] | ## (^## indicates activity ≥200% of VX-809 (3 uM) with compound at 10 uM and VX-809 at 3 uM)
